Data published in patent US11891667B2, “IGF2BP3 functional alterations and overexpression as a marker for cancer diagnosis and therapeutic response to IGF1R inhibitors” (UNIVERSITY OF PITTSBURGH-OF THE COMMONWEALTH SYSTEM OF …, priority 2016, dated 2024).

Columns and labels:
[1] = test system: PaCa-2 pancreatic cancer cell tumors; assay: PaCa-2 xenograft in nude mice; type: in vivo; settings: FIG. 5F; for tumor growth: PaCa-2 subcutaneous xenograft, nude mice, therapeutic doses
Procedure: (§1) Next, tumor cells overexpressing IGF2BP3 were tested to see if their growth can be blocked via IGF1R inhibition in vivo using a xenograft experimental model. Pancreatic cancer cells PaCa-2 and colon cancer cells Caco-2, both expressing IGF2PB3 at high level (FIG. 5B), and thyroid cancer cells FTC133 with low levels of IGF2BP3 expression were employed to establish tumors growing in nude mice at sites of subcutaneous cell injection.

[2] = test system: FTC133 thyroid cancer cell tumors; assay: FTC133 xenograft in nude mice; type: in vivo; settings: FIG. 5G; for tumor growth: FTC133 subcutaneous xenograft, nude mice, therapeutic doses
Procedure: as §1

[3] = test system: FTC133 cells; assay: Cell growth/proliferation of FTC133 cells (low IGF2BP3); type: cell-based, human
Procedure: (§2) The effects of IGF1R inhibition on the growth of cancer cells driven by IGF2PB3 overexpression were then tested. First, studies were conducted to determine if activation of the AKT and MAPK pathways and cell growth induced by IGF2BP3 overexpression is affected by inhibiting IGF1R by OSI-906 in vitro. […] The experiments were repeated in quadruplicate and were calculated as percentage of viable cells after treatment with OSI-906 (mean±SD). […] Again, the assay was performed in quadruplicate and shown as mean±SD.

[4] = test system: U2OS cells with induced IGF2BP3 expression; assay: Cell growth of U2OS cells transiently transfected with IGF2BP3; type: cell-based; settings: IGF2BP3 induced by transient transfection, FIG. 5C
Procedure: as §2

[5] = test system: IGF1R; assay: Western blotting of IGF1R phosphorylation and downstream signaling in HEK293 cells overexpressing IGF2BP3; type: cell-based; settings: FIG. 5A
Procedure: as §2

[6] = test system: U2OS cells; assay: Cell growth/proliferation of U2OS cells (low IGF2BP3); type: cell-based
Procedure: as §2

[7] = test system: solid tumors; settings: cited from earlier work
[8] = test system: Caco-2 colon cancer cell tumors; assay: Caco-2 xenograft in nude mice; type: in vivo; settings: FIG. 5F; for tumor growth: Caco-2 subcutaneous xenograft, nude mice, therapeutic doses
Procedure: as §1

[9] = test system: FTC133 cells with induced IGF2BP3 expression; assay: Cell growth of FTC133 cells transiently transfected with IGF2BP3; type: cell-based, human; settings: FTC133, IGF2BP3 induced by transient transfection, FIG. 5C
Procedure: as §2

[10] = test system: PaCa-2 cancer cells; assay: Cell growth/proliferation of PaCa-2 cancer cells (high IGF2BP3); type: cell-based, human
Procedure: as §2

[11] = test system: PaCa-2 cells; assay: Soft agar colony formation of PaCa-2 cells; type: cell-based, human
Procedure: Finally, the impact of IGF2BP3 overexpression on cell transformation was investigated.
as §2

## C[C@]1(O)C[C@@H](c2nc(-c3ccc4ccc(-c5ccccc5)nc4c3)c3c(N)nccn32)C1 [OSI-906, linsitinib]
[1]
  tumor growth: arrested growth of tumors
[1]; listed as linsitinib
  tumor growth: particularly inhibited
[1]; PaCa-2 xenograft tumor tissue
  phosphorylated IGF1R, AKT, S6, and ERK in the tumor tissue: reduction of phosphorylated IGF1R, AKT, S6, and ERK
[2]
  tumor growth: had no effect on the growth
[2]; listed as linsitinib
  tumor growth: not impacted
[2]; FTC133 xenograft tumor tissue
  phosphorylated IGF1R, AKT, S6, and ERK in the tumor tissue: did not show reduction in the phosphorylation
[3]; FTC133, low IGF2BP3 expression, FIG. 5B
  cell growth: did not have any effects
[3]; FTC133, treatment for 72 hours, FIG. 5B bottom panel
  proliferation (percentage of viable cells): no effect on proliferation
[4]
  cell growth: acquired sensitivity to growth inhibition
[5]; 5 μM, 30 minutes
  IGF1R phosphorylation and downstream signaling induced by IGF2BP3: inhibition of IGF1R phosphorylation and downstream signaling
[5]; Western blotting
  phosphorylation of AKT, S6, and ERK induced by IGF2BP3 overexpression: blocked phosphorylation of AKT, S6, and ERK
[6]; low IGF2BP3 expression, FIG. 5B
  cell growth: did not have any effects
[6]; treatment for 72 hours, FIG. 5B bottom panel
  proliferation (percentage of viable cells): no effect on proliferation
[7]; clinical trials, patients with solid tumors
  proportion of patients with clinical response: 1-5%
[7]; clinical trials
  efficacy in patients in clinical trials: ineffective in the vast majority of patients
[7]; colorectal cancer, non-small cell lung cancer, sarcoma, and other cancer types
  tumor responsiveness in clinical trials: only low levels of tumor responsiveness were observed
[8]
  tumor growth: arrested growth of tumors
[8]; listed as linsitinib
  tumor growth: particularly inhibited
[8]; Caco-2 xenograft tumor tissue
  phosphorylated IGF1R, AKT, S6, and ERK in the tumor tissue: reduction of phosphorylated IGF1R, AKT, S6, and ERK
[9]
  cell growth: acquired sensitivity to growth inhibition
[10]; PaCa-2, strongly overexpress IGF2BP3, FIG. 5B
  cell growth: dose-dependent growth inhibition
[10]; PaCa-2, treatment for 72 hours, FIG. 5B bottom panel
  proliferation (percentage of viable cells): inhibition of proliferation
[11]
  colony formation in soft agar: significant reduction of colony formation
